In brackets after ≈: the same amount, converted by molar mass.
Columns and labels:
[1] = test system: L5178Y; experiment: Cytotoxicity against […] assessed as inhibition of cell viability at 10 ug/ml; format: functional; settings: Mus musculus
[2] = biological target: T1, Acetylcholinesterase (Homo sapiens, UniProt P22303); experiment: Inhibition of AChE in human erythrocytes using acetylthiocholine iodide as substrate at 50 uM incubated for 20 mins by DTNB reagent based Ellman's method; format: cell-based; settings: Erythrocyte
[3] = biological target: Sigma non-opioid intracellular receptor 1 (Cavia porcellus, UniProt Q60492); experiment: Displacement of [3H](+)-pentazocine from sigma 1 receptor in guinea pig brain membranes measured after 150 mins by liquid scintillation counting method; format: cell membranes, Membrane
[4] = Selectivity index, ratio of Ki for displacement of [3H]-(+)-pentazocine from sigma1 receptor in guinea pig brain membrane to Ki for displacement of [3H]DTG from sigma 2 receptor in Sprague-Dawley rat liver membranes; format: cell membranes
[5] = biological target: Glutamate NMDA receptor (Rattus norvegicus) (UniProt P35439+Q00959+Q00960+Q00961+Q62645+Q8VHN2+Q9R1M7); experiment: Displacement of 3H-(+)-MK 801 from NMDA receptor in rat brain incubated for 80 mins by liquid scintillation counting method; format: tissue-based; settings: filed as antagonist
[6] = organism: Mus musculus; experiment: Analgesic activity in acetic acid induced mouse assessed as assessed as reduction in acetic acid induced writhing […]; format: functional, organism-based
[7] = test system: HL-60; experiment: Cytotoxicity against human HL-60 cells; format: functional, cell-based
[8] = test system: Rattus norvegicus; experiment: Antisecretory activity in Sprague-Dawley rat assessed as inhibition of gastric acid accumulation at 20 mg/kg,ID; format: functional
[9] = Displacement of [3H]SCH-23390 from porcine striatum dopamine D2 receptor incubated for 30 mins by radioligand competition binding assay based scintillation counter analysis; format: tissue-based, Sus scrofa
[10] = biological target: D(1A) dopamine receptor (Sus scrofa, UniProt P50130); experiment: Displacement of [3H]SCH-23390 from porcine striatum dopamine D1 receptor incubated for 30 mins by radioligand competition binding assay based scintillation counter analysis; format: tissue-based
[11] = test system: KB; experiment: Antiproliferative activity against human KB cells assessed as cell growth inhibition incubated for 48 hrs by coulter counter method; format: functional; settings: read-out: ID50 (the source's name)
[12] = organism: Rattus norvegicus; experiment: Antiallergic activity in Wistar rat abdominal cavity assessed as inhibition of C48/80-induced histamine release at 0.0005 M incubated for 30 mins by OPT-fluorophore based spectrofluorometric analysis; format: functional; settings: 0.5 h
[13] = test system: Mus musculus; experiment: Analgesic activity in po dosed phenylquinone induced mouse assessed as assessed as reduction in phenylquinone induced writhing; format: functional
[14] = biological target: Beta-1 adrenergic receptor (Rattus norvegicus) (UniProt P18090); experiment: Antagonist activity against beta1 adrenoceptor in Sprague-Dawley rat incubated for 5 mins; settings: filed as antagonist
[15] = test system: Rattus norvegicus; experiment: Anti-ulcerative activity in aspirin induced Sprague-Dawley rat ulcer model assessed as inhibition of ulcer index at 20 mg/kg,po; format: functional
[16] = biological target: Sigma intracellular receptor 2 (Rattus norvegicus, UniProt Q5U3Y7); experiment: Displacement of [3H]DTG from sigma 2 receptor in Sprague-Dawley rat liver membranes measured after 120 mins by liquid scintillation counting method; format: cell membranes, Membrane
[17] = biological target: D(4) dopamine receptor (Homo sapiens, UniProt P21917); experiment: Displacement of spiperone from human dopamine D4 receptor expressed in CHO cell membrane incubated for 1 hr by competitive radioligand binding assay based; format: cell membranes
[18] = biological target: 5-hydroxytryptamine receptor 1B (Homo sapiens, UniProt P28222); experiment: Displacement of [3H]serotonin from recombinant human 5-HT1B receptor expressed in HEK293 cells incubated for 1 hr by competitive radioligand binding assay based; format: cell-based
[19] = biological target: T1, Acetylcholinesterase; experiment: Inhibition of AChE (unknown origin) using acetylthiocholine iodide as substrate incubated for 10 mins by DTNB reagent based Ellman's method
[20] = organism: Homo sapiens; experiment: Selectivity index, ratio of IC50 for […] (unknown origin)
[21] = test system: Lasiodiplodia theobromae; experiment: Antifungal activity against Lasiodiplodia theobromae assessed as fungal growth inhibition at 100 ug/ml incubated for 4 days by disk method; format: functional; settings: 96 h, time 4 day
[22] = biological target: DNA topoisomerase 2 (Drosophila melanogaster, UniProt P15348); experiment: Inhibition of Drosophila topoisomerase II assessed as relaxation of supercoiled plasmid pBR322 DNA incubated for 30 mins by ethidium bromide staining based agarose gel electrophoresis
[23] = biological target: T2, DNA gyrase (Escherichia coli, UniProt P0AES4+P0AES6); experiment: Inhibition of Escherichia coli DNA gyrase supercoiling activity using pBR322 DNA as substrate incubated for 2 hrs by ethidium bromide/bromophenol blue staining based agarose gel electrophoresis analysis; format: protein-complex assay
[24] = biological target: T2, DNA gyrase; experiment: Inhibition of Escherichia coli DNA gyrase assessed as inhibition of relaxation of supercoiled plasmid pBR322 DNA incubated for 2 hrs by ethidium bromide/bromophenol blue staining based agarose gel electrophoresis analysis; format: protein-complex assay
[25] = test system: NCI-H460; experiment: Antiproliferative activity against human NCI-H460 assessed as cell growth inhibition at 100 uM by SRB assay based spectrophotometric analysis; format: functional
[26] = Antioxidant activity assessed as hydroxy radical scavenging activity by HPLC analysis; format: functional
[27] = Antioxidant activity assessed as Ferric ion reducing activity by FRAP assay based HPLC analysis; format: functional
[28] = Antioxidant activity assessed as DPPH radical scavenging activity by HPLC analysis; format: functional
[29] = test system: Oocyte; experiment: Antagonist activity at human dopamine D4 receptor polymorphic variant 2 expressed in Xenopus laevis oocytes at 1 uM incubated for 2 mins; format: cell-based; settings: filed as antagonist
[30] = test system: Oocyte; experiment: Antagonist activity at human dopamine D4 receptor polymorphic variant 7 expressed in Xenopus laevis oocytes at 1 uM incubated for 2 mins; format: cell-based
[31] = test system: Oocyte; experiment: Antagonist activity at human dopamine D4 receptor polymorphic variant 4 expressed in Xenopus laevis oocytes at 1 uM incubated for 2 mins; format: cell-based; settings: filed as antagonist
[32] = test system: Aspergillus flavus; experiment: Antifungal activity against Aspergillus flavus assessed as fungal growth inhibition incubated for 1 hrs by disk diffusion assay; format: functional
[33] = test system: Klebsiella pneumoniae; experiment: Antibacterial activity against Klebsiella pneumoniae assessed as bacterial growth inhibition incubated for 24 hrs by disk diffusion assay; format: functional
[34] = test system: Talaromyces marneffei; experiment: Antifungal activity against Penicillium marneffei assessed as fungal growth inhibition incubated for 1 hrs by disk diffusion assay; format: functional
[35] = test system: Trichophyton mentagrophytes; experiment: Antifungal activity against Trichophyton mentagrophytes assessed as fungal growth inhibition incubated for 1 hrs by disk diffusion assay; format: functional
[36] = test system: Aspergillus fumigatus; experiment: Antifungal activity against Aspergillus fumigatus assessed as fungal growth inhibition incubated for 1 hrs by disk diffusion assay; format: functional
[37] = test system: Pseudomonas aeruginosa; experiment: Antibacterial activity against Pseudomonas aeruginosa ATTC-27853 assessed as bacterial growth inhibition incubated for 24 hrs by disk diffusion assay; format: functional
[38] = test system: Escherichia coli; experiment: Antibacterial activity against Escherichia coli ATTC-25922 assessed as bacterial growth inhibition incubated for 24 hrs by disk diffusion assay; format: functional
[39] = test system: Staphylococcus aureus; experiment: Antibacterial activity against Staphylococcus aureus ATTC-25923 assessed as bacterial growth inhibition incubated for 24 hrs by disk diffusion assay; format: functional

T1 sequence (P22303 whole entry): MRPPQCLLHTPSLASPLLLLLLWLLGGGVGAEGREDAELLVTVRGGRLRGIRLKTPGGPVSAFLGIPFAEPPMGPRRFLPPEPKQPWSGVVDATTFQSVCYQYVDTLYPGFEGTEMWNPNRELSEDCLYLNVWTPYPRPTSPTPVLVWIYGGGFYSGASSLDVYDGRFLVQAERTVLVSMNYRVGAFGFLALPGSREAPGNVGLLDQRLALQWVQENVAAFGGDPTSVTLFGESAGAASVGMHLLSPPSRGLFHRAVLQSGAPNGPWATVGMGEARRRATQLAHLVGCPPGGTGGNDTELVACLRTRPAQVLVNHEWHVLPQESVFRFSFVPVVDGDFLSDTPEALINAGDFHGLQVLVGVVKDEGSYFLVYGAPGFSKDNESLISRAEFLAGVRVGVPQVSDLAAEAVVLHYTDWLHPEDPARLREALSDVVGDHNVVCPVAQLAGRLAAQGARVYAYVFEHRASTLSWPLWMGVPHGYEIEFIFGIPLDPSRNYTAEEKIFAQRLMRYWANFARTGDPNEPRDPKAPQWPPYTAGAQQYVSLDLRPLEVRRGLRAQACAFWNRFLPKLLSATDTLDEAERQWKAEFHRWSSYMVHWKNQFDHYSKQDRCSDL
Sigma intracellular receptor 2, sequence (Q5U3Y7 whole entry): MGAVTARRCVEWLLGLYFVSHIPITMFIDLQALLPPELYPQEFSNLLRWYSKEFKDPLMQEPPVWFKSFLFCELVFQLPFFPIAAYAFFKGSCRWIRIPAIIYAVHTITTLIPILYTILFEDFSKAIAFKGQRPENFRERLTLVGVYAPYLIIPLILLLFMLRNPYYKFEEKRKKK
DNA topoisomerase 2, sequence (P15348 whole entry): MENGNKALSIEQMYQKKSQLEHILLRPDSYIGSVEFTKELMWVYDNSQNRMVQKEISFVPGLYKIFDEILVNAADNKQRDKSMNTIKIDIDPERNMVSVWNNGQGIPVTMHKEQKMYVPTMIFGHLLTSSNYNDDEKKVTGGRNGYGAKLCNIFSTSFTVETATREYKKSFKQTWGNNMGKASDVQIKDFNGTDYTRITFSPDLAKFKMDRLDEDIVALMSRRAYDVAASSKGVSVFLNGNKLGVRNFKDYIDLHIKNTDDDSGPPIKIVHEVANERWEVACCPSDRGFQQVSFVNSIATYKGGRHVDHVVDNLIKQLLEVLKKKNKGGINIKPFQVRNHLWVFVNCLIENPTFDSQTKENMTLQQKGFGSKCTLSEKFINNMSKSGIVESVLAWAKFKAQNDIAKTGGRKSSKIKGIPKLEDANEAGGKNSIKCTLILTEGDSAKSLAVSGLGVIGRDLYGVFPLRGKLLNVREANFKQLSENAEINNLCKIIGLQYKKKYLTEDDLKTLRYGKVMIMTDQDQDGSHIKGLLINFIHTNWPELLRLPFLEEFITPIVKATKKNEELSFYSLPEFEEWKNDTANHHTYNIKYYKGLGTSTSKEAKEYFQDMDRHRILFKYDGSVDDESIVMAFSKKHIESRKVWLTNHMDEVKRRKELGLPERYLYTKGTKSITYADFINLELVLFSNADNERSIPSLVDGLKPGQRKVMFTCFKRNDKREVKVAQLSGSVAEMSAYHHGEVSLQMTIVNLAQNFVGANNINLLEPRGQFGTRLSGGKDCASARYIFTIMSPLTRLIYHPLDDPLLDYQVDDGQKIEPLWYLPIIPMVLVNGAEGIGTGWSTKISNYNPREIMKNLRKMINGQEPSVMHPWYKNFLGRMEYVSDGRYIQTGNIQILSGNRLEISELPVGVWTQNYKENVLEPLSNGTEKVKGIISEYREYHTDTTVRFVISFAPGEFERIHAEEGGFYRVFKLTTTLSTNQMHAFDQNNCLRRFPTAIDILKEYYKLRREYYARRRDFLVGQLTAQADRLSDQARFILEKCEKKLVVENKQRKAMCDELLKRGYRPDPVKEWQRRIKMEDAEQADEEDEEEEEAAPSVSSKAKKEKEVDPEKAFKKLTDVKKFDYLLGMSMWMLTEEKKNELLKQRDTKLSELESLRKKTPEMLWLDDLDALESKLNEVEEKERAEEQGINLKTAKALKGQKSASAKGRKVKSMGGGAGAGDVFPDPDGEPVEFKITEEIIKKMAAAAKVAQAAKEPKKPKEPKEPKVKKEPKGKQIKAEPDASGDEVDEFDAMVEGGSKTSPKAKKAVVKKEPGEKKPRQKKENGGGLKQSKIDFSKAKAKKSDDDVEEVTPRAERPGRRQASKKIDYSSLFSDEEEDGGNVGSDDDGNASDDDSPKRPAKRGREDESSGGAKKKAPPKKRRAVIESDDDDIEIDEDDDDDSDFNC
Sigma non-opioid intracellular receptor 1, sequence (Q60492 whole entry): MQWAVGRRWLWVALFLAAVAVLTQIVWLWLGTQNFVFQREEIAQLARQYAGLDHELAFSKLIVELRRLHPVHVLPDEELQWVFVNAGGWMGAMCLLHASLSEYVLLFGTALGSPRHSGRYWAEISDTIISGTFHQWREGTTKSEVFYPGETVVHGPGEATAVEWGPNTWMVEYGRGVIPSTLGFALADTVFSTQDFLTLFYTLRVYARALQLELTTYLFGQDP
Beta-1 adrenergic receptor (Rattus norvegicus), sequence (P18090 whole entry, looked up): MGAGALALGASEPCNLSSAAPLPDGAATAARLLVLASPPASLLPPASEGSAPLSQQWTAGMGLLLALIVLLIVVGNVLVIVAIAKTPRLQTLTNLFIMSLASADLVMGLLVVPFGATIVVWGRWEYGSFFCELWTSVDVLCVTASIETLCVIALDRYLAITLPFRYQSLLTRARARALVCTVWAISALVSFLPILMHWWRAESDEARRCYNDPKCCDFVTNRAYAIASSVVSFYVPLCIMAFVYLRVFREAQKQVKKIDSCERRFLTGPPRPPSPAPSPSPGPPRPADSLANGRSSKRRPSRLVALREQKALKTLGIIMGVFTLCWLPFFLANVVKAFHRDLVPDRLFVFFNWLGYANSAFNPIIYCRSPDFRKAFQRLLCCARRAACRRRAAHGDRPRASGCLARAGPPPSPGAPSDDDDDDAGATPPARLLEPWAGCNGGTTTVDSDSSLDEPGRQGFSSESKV
D(4) dopamine receptor, sequence (P21917 whole entry): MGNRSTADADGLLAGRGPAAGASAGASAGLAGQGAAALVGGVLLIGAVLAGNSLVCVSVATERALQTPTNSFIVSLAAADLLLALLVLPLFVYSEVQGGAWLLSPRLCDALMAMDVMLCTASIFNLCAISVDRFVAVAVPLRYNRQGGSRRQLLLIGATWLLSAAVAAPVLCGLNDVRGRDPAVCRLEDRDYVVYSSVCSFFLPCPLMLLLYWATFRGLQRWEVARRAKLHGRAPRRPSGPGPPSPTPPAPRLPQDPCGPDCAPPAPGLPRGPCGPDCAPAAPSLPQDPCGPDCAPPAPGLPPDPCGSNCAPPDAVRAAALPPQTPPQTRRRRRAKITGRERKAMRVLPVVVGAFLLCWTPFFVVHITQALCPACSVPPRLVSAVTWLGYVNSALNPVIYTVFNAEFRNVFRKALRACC
5-hydroxytryptamine receptor 1B, sequence (P28222 whole entry): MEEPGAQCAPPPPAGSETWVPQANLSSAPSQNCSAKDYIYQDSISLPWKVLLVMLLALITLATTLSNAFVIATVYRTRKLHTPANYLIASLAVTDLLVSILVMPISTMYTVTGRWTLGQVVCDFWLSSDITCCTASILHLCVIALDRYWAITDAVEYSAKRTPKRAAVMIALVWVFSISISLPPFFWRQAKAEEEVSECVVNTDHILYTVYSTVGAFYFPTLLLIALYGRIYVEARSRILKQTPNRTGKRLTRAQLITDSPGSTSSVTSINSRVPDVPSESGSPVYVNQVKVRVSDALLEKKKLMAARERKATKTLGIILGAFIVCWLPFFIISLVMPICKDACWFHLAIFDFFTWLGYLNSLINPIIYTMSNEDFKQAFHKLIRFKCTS
D(1A) dopamine receptor, sequence (P50130 whole entry): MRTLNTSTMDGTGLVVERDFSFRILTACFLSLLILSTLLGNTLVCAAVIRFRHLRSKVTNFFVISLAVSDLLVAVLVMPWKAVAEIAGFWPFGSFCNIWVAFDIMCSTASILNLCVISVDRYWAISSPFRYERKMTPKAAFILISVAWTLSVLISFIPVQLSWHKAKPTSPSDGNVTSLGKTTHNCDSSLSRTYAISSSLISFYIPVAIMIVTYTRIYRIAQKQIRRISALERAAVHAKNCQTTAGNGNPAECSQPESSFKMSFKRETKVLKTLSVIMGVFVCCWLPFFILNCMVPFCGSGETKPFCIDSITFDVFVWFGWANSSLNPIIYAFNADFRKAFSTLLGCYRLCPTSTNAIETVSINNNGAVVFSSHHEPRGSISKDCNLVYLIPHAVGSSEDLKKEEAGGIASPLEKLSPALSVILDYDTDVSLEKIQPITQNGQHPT

COc1cc(O)c(C)c2c1CO[C@@H](C)C2
inhibition at 10 µg/mL [1]: 3.4%

COC1(C)Cc2c(C=O)c(O)c(Cc3c(O)c(C=O)c4c(c3O)COC(C)(OC)C4)c(O)c2CO1 (stereo unspecified)
inhibition [2]: 53%

COC1Cc2ccccc2C2(CCN(CCc3ccccc3)CC2)O1 (stereo unspecified)
Ki [3]: 0.00207 µM | Ratio Ki [4]: 148

COc1cc2c(cc1OC)C1CN(C)CC(C2)O1 (stereo unspecified)
Activity [5]: 95% | EC50 [6]: 77 mg/kg

COc1cc(O)cc2c1CO[C@@H](C)C2
inhibition at 10 µg/mL [1]: 16.1%

Cc1c(O)cc(O)c2c1[C@H](C)[C@@H](C)O[C@@H]2c1ccc(O)cc1
IC50 [7]: 22.7 µg/mL (≈ 75.6 µM)

CC(CC1OCCc2ccccc21)NCCc1ccccc1 (stereo unspecified)
inhibition in vivo at 20 mg/kg [8]: 71.3%

COc1cc(O)c(C)c2c1C(=O)O[C@@H](C)C2
inhibition at 10 µg/mL [1]: 59.5%

COc1cc2c(cc1OC)C1CNCC(C2)O1 (stereo unspecified)
Activity [5]: 93%

NC[C@@H]1O[C@H](C23CC4CC(CC(C4)C2)C3)Cc2c1ccc(O)c2O
Ki [9]: 1.86 µM | Ki [10]: 0.0039 µM

COc1cc(O)cc2c1C(=O)O[C@@H](C)C2
inhibition at 10 µg/mL [1]: 13.7%

Clc1ccc2oc(SCC3OCCc4ccccc43)nc2c1 (stereo unspecified)
IC50 [11]: 6.1 µg/mL (≈ 18.4 µM)

c1ccc(CCN2CCC3(CC2)COCc2ccccc23)cc1
inhibition in vivo at 500 µM [12]: 96% | ED50 [13]: 54 mg/kg

CCCNCC(O)CC/N=C1\COCc2c1ccc(OC)c2OC (stereo unspecified)
inhibition [14]: 62.9%

CC(C)NC(C)CC1OCCc2ccccc21 (stereo unspecified)
inhibition in vivo at 20 mg/kg [8]: 61%

CC(CC1CCCc2ccccc21)NCC(C)c1ccccc1 (stereo unspecified)
inhibition in vivo at 20 mg/kg [8]: 71.3% | inhibition in vivo at 20 mg/kg [15]: 3.2%

N#CC1Cc2ccccc2C2(CCN(Cc3ccccc3)CC2)O1 (stereo unspecified)
Ki [16]: 1.59 µM

O=C1OCC2(CCN(Cc3ccccc3)CC2)c2ccccc21
inhibition in vivo at 500 µM [12]: 31% | ED50 [13]: 100 mg/kg

O=C1OCC2(CCN(CCc3ccccc3)CC2)c2ccccc21
inhibition in vivo at 500 µM [12]: 94% | ED50 [13]: 60 mg/kg

COC(=O)[C@]1(C)Cc2cc(OC)c(OC)cc2C2(CCN(C)CC2)O1.Cl
EC50 [6]: 44 mg/kg

CNC(=O)c1ccc2c(c1)CCO[C@H]2CCN1CCN(c2ccc(OC)cc2)CC1
Ki [17]: 3.7 µM | Ki [18]: 5.78 µM

COc1cc2c(cc1OC)C(=O)/C(=C/c1cc[n+](Cc3ccc(F)cc3)cc1)OC2
IC50 [19]: 0.00015 µM | Ratio IC50 [20]: > 5000

CCOC1OC(C)Cc2c(C)c(O)cc(OC)c21 (stereo unspecified)
inhibition at 100 µg/mL [21]: 74%

COc1cc(O)c(C)c2c1[C@H](O)O[C@@H](C)C2
inhibition at 10 µg/mL [1]: 40.4%

CCCCCCC[C@H]1Cc2cc(O)c(C(=O)O)c(O)c2[C@@H](O)O1
IC50 [22]: 3.08 µM | IC50 [23]: 18.5 µM | IC50 [24]: 27.7 µM

CN1CCC2(CC1)COCc1ccccc12
ED50 [13]: 12 mg/kg

COC(=O)Cc1cc2c(cc1C(=O)c1ccc(N)cc1)OCO2
inhibition at 100 µM [25]: 4%

C[C@H]1Cc2cc3c(cc2[C@H](c2ccc(N)cc2)O1)OCO3
inhibition at 100 µM [25]: 67%

Oc1ccc2c(c1)OCC21Cc2cc(O)c(O)cc2C(O)O1 (stereo unspecified)
IC50 [26]: 33.3 µM | IC50 [27]: 78.2 µM | IC50 [28]: 33.3 µM

COC1(C)Cc2c(C=O)c(O)c(Cc3c(O)c(C=O)c4c(c3O)COC(C)=C4)c(O)c2CO1 (stereo unspecified)
inhibition [2]: 55%

COc1ccc(N2CCN(CC[C@@H]3O[C@@H](C)Cc4cc(OC)c(OC)cc43)CC2)cc1
inhibition [29]: 66% | inhibition [30]: 33% | inhibition [31]: 46%

CN/C(=N\CCSCc1nc[nH]c1C)NC#N [CIMETIDINE]
inhibition in vivo at 20 mg/kg [8]: 51.6%

COC1=CC(=O)C(C)=C2C[C@H](C)OC=C12
inhibition at 100 µg/mL [21]: 69%

COc1cc(O)c(C)c2c1[C@@H](OC)O[C@@H](C)C2
inhibition at 100 µg/mL [21]: 76%

CC1=Cc2c(C=O)c(O)c(Cc3c(O)c(C=O)c4c(c3O)COC(C)=C4)c(O)c2CO1
inhibition [2]: 46%

COc1cccc(Nc2nnc(C3(C)OCCc4cc(OC)c(OC)c(OC)c43)s2)c1 (stereo unspecified)
MIC [32]: 6.25 µg/mL (≈ 14.1 µM) | MIC [33]: 6.25 µg/mL (≈ 14.1 µM) | MIC [34]: 6.25 µg/mL (≈ 14.1 µM) | MIC [35]: 6.25 µg/mL (≈ 14.1 µM) | MIC [36]: 6.25 µg/mL (≈ 14.1 µM) | MIC [37]: 6.25 µg/mL (≈ 14.1 µM) | MIC [38]: 6.25 µg/mL (≈ 14.1 µM) | MIC [39]: 6.25 µg/mL (≈ 14.1 µM)

COC1(C)Cc2c(C=O)c(O)c(C)c(O)c2CO1 (stereo unspecified)
inhibition [2]: -1%

CC1=Cc2c(C=O)c(O)c(C)c(O)c2CO1
inhibition [2]: -2%

CC12Cc3cc4c(cc3C(c3ccc(N)cc3)(OCO1)O2)OCO4 (stereo unspecified)
inhibition at 100 µM [25]: 86%

COc1cc2c(c(OC)c1OC)C(C)(c1n[nH]c(=S)n1-c1ccc(C)cc1)OCC2 (stereo unspecified)
MIC [33]: 6.25 µg/mL (≈ 14.6 µM) | MIC [37]: 6.25 µg/mL (≈ 14.6 µM) | MIC [38]: 6.25 µg/mL (≈ 14.6 µM) | MIC [39]: 6.25 µg/mL (≈ 14.6 µM)

COc1cc(O)c(C)c2c1CO[C@@H](C)[C@@H]2O
inhibition at 10 µg/mL [1]: 26.2%

From ChEMBL document CHEMBL5113374, “Research progress in biological activities of isochroman derivatives” (Eur J Med Chem, 2021)
